Test results taken from article PMC5408566 (2016).

Columns and labels:
[1] = tested on: ATP DAs on ACE microarray (Cy3 ATP DNA Aptamer) (DNA, aptamer) TCACTGACCTGGGGGAGTATTGCGGAGGAAGGT; test: surface fluorescence loss (aptamer release), non-equilibrium; conditions: immobilised ACE microarray; negative control ligand; no induced fit binding
[2] = tested on: 5′Q-5C:11 DA (Cy3 ATP DNA Aptamer with 5′Q-5C:11 ACE) (DNA, aptamer) TCACTGACCTGGGGGAGTATTGCGGAGGAAGGT; test: solution FRET (Cy3/BHQ-2) equilibrium titration; conditions: 300 mM Na+, 5 mM Mg2+; apparent; 25 °C; 200 nM aptamer; quencher ACE 5′Q-5C:11 displaced, Q:F 1:1; n = 1.2
[3] = tested on: 5′Q-5C:10 DA (Cy3 ATP DNA Aptamer with 5′Q-5C:10 ACE) (DNA, aptamer) TCACTGACCTGGGGGAGTATTGCGGAGGAAGGT; test: solution FRET (Cy3/BHQ-2) equilibrium titration; conditions: 300 mM Na+, 5 mM Mg2+; apparent; 25 °C; 200 nM aptamer; quencher ACE 5′Q-5C:10 displaced, Q:F 1:1; n = 1.0
[4] = tested on: 5′Q-2T:9 DA (Cy3 ATP DNA Aptamer with 5′Q-2T:9 ACE) (DNA, aptamer) TCACTGACCTGGGGGAGTATTGCGGAGGAAGGT; test: solution FRET (Cy3/BHQ-2) equilibrium titration; conditions: 300 mM Na+, 5 mM Mg2+; apparent; 25 °C; 200 nM aptamer; quencher ACE 5′Q-2T:9 displaced, Q:F 1:1; n = 1.3
[5] = tested on: 5′Q-5C:12 DA (Cy3 ATP DNA Aptamer with 5′Q-5C:12 ACE) (DNA, aptamer) TCACTGACCTGGGGGAGTATTGCGGAGGAAGGT; test: solution FRET (Cy3/BHQ-2) equilibrium titration; conditions: 300 mM Na+, 5 mM Mg2+; apparent; 25 °C; 200 nM aptamer; quencher ACE 5′Q-5C:12 displaced, Q:F 1:1; n = 1.3
[6] = tested on: 5′Q-5C:9 DA (Cy3 ATP DNA Aptamer with 5′Q-5C:9 ACE) (DNA, aptamer) TCACTGACCTGGGGGAGTATTGCGGAGGAAGGT; test: solution FRET (Cy3/BHQ-2) equilibrium titration; conditions: 300 mM Na+, 5 mM Mg2+; apparent; 25 °C; 200 nM aptamer; quencher ACE 5′Q-5C:9 displaced, Q:F 1:1; n = 0.7

| SMILES | binding [1] | Kd,Exp Obs [2] | Kd,Exp Obs [3] | Kd,Exp Obs [4] | Kd,Exp Obs [5] | Kd,Exp Obs [6] |
| --- | --- | --- | --- | --- | --- | --- |
| Nc1nc2c(ncn2[C@@H]2O[C@H](COP(=O)(O)OP(=O)(O)OP(=O)(O)O)[C@@H](O)[C@H]2O)c(=O)[nH]1 | no | – | – | – | – | – |
| Nc1ncnc2c1ncn2[C@@H]1O[C@H](COP(=O)(O)OP(=O)(O)OP(=O)(O)O)[C@@H](O)[C@H]1O | – | 663 µM | 163 µM | 85 µM | 1370 µM | 4700 µM |
